Positions count from the first letter of the chain named. Blank lines part the entries; values can stand above or below the compound they belong to.
Assays:
FLT3 = target: T1, FLT3 (Homo sapiens, UniProt P36888); test: DiscoverX KINOMEscan competition binding, FLT3; set-up: using full-length kinases in the presence of cellular concentrations of ATP in live, uncompromised cells
T1 sequence (P36888 27-993): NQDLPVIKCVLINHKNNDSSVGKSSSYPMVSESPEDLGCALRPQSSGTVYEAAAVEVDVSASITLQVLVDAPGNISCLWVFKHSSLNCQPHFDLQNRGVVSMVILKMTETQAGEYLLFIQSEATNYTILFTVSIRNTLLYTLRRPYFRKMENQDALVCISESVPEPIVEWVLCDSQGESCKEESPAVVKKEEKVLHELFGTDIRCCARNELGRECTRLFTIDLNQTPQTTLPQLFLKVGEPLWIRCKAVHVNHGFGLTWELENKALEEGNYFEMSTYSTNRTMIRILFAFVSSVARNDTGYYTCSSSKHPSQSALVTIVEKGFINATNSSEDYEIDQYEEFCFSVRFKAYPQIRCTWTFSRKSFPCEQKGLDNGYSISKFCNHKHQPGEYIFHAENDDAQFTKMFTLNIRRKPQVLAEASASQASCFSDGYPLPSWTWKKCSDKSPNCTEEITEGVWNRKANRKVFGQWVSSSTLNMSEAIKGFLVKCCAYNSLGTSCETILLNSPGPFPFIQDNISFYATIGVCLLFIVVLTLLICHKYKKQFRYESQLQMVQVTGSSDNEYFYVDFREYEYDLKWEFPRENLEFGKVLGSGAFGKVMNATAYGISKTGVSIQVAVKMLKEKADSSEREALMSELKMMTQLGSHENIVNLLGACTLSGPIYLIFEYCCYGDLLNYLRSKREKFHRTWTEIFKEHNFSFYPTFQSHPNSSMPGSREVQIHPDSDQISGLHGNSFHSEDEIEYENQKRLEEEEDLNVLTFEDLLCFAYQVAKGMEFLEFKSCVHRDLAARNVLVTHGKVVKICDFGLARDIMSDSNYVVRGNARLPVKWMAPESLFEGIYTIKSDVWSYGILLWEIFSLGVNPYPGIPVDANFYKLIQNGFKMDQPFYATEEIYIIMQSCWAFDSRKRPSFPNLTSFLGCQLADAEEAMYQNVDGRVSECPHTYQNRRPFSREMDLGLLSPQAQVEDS

IRAK1 = IRAK1 (Homo sapiens, UniProt P51617); test: RBC HotSpot Kinase Assay, IRAK1; settings: IRAK1 IC50
Chain of IRAK1 (P51617 whole entry): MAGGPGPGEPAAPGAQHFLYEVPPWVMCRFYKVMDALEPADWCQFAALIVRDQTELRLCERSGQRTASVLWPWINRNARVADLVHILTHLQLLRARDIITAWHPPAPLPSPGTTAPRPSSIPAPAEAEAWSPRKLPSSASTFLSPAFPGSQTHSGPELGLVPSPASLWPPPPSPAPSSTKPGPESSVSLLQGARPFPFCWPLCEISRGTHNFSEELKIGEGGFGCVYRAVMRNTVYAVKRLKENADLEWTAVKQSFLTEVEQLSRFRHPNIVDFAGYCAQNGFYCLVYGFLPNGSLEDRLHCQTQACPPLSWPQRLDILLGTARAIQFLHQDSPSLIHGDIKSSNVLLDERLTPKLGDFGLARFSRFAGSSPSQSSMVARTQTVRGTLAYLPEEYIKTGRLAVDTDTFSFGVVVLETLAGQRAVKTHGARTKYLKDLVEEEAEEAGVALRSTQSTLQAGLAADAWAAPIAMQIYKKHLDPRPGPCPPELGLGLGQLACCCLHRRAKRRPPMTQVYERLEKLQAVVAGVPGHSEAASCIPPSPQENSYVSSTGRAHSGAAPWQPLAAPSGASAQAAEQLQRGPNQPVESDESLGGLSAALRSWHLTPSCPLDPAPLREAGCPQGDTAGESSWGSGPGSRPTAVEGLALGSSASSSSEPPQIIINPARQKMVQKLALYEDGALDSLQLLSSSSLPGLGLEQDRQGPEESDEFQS

FLT3 N841I = target: T2, FLT3 N841I (Homo sapiens, UniProt P36888, N841I); test: DiscoverX KINOMEscan competition binding, FLT3 N841I
T2 construct: purchased DiscoverX (KINOMEscan)
T2 sequence (P36888 27-993 N841I): T1 sequence (P36888 27-993) with N815I

Structure (SMILES): F[C@H]1CCNC[C@@H]1Nc1cncc(-c2cnc3cc(OC4CC4)ccn23)n1 [Compound 12, 6-(7-cyclopropoxyimidazo[1,2-a]pyridin-3-yl)-N-((3S,4S)-4-fluoropiperidin-3-yl)pyrazin-2-amine]
Kd (FLT3): 1.9 nM
IC50 (IRAK1): 18 nM
Kd (FLT3 N841I): 4.7 nM

Structure (SMILES): COc1cc2ncc(-c3cncc(N[C@H]4CNCC[C@@H]4F)n3)n2nc1C1CC1 [Compound 24, 6-(6-cyclopropyl-7-methoxyimidazo[1,2-b]pyridazin-3-yl)-N-((3S,4S)-4-fluoropiperidin-3-yl)pyrazin-2-amine]
Kd (FLT3): 0.19 nM
IC50 (IRAK1): 40 nM
Kd (FLT3 N841I): 0.51 nM

Structure (SMILES): COc1cc2ncc(-c3ccnc(N[C@H]4CNC[C@@H]4F)n3)n2nc1C1CC1 [Compound 49, 4-(6-cyclopropyl-7-methoxyimidazo[1,2-b]pyridazin-3-yl)-N-((3S,4S)-4-fluoropyrrolidin-3-yl)pyrimidin-2-amine]
Kd (FLT3): 0.26 nM
IC50 (IRAK1): 11 nM
Kd (FLT3 N841I): 0.61 nM

Structure (SMILES): COc1cc2ncc(-c3ccnc(N[C@H]4CNCC[C@@H]4F)n3)n2nc1C1CC1 [Compound 51, 4-(6-cyclopropyl-7-methoxyimidazo[1,2-b]pyridazin-3-yl)-N-((3S,4S)-4-fluoropiperidin-3-yl)pyrimidin-2-amine]
Kd (FLT3): 0.22 nM
IC50 (IRAK1): 11 nM
Kd (FLT3 N841I): 0.62 nM

Continued by falling IC50 (IRAK1), values first:

IC50 (IRAK1): 63 nM
Structure (SMILES): COc1cc2ncc(-c3ccnc(N[C@@H]4CCCNC4)n3)n2nc1C1CC1 [Compound 50, (R)-4-(6-cyclopropyl-7-methoxyimidazo[1,2-b]pyridazin-3-yl)-N-(piperidin-3-yl)pyrimidin-2-amine]

Kd (FLT3): 1.8 nM
IC50 (IRAK1): 61 nM
Kd (FLT3 N841I): 5.6 nM
Structure (SMILES): COc1cc2ncc(-c3cncc(N[C@H]4CNC[C@@H]4F)n3)n2nc1C1CC1 [Compound 22, 6-(6-cyclopropyl-7-methoxyimidazo[1,2-b]pyridazin-3-yl)-N-((3S,4S)-4-fluoropyrrolidin-3-yl)pyrazin-2-amine]

Kd (FLT3): 5.2 nM
IC50 (IRAK1): 3 nM
Kd (FLT3 N841I): 7.4 nM
Structure (SMILES): CC(O)(c1cn2c(-c3ccnc(N[C@H]4CNCC[C@@H]4F)n3)cnc2cn1)C(F)(F)F (single isomer, unassigned) [Compound 72]

Kd (FLT3): 0.28 nM
IC50 (IRAK1): 1 nM
Kd (FLT3 N841I): 0.97 nM
Structure (SMILES): COc1cc2ncc(-c3ccnc(N[C@@H]4CCCNC4)n3)n2cc1C(C)(C)O [Compound 44, (R)-2-(7-methoxy-3-(2-(piperidin-3-ylamino)pyrimidin-4-yl)imidazo[1,2-a]pyridin-6-yl)propan-2-ol]

From patent US20250154144A1 (CHILDREN'S HOSPITAL MEDICAL CENTER, priority 2021, published 2025)
